This note sets out measurements from US20230312587A1, “PTERIDINONE COMPOUNDS AND USES THEREOF” (Vertex Pharmaceutical Incorporated, priority 2018, published 2023).

Each structure is given as a SMILES string. Where two headings read alike, the source gives them in different places.

In this test the test system is β-catenin-TCF-mediated reporter transcription activity in Colo 205 cells. The test is described as follows: Colo 205 reporter assay (TCF/LEF luciferase). It is filed as cell-based. The note with it: Homo sapiens, COLO 205, 5 h, five hours after addition of compound. An outline of the steps: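 Luciferase signal from a TCF/LEF-driven reporter, stably integrated in Colo 205 colon cancer cells, was measured 5 h after compound addition.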

[1] abbreviates: Colo 205 TCF/LEF luciferase reporter, read-out: TCF reporter Colo205 IC50.

As for `CC[C@H]1C(=O)Nc2c(C)nc(N[C@H]3C[C@@H](CNc4cnc(C(F)(F)F)cn4)C3)nc2N1C` [Compound 713, (S)-7-ethyl-4,8-dimethyl-2-((cis-3-(((5-(trifluoromethyl)pyrazin-2-yl)amino)methyl)cyclobutyl)amino)-7,8-dihydropteridin-6(5H)-one], the IC50 under setting [1] is under 300 nM.

For the molecule `Cc1nc(N[C@H]2C[C@@H](NC(=O)Nc3cc(F)c(F)cc3F)C2)nc2c1NC(=O)[C@H](C)N2C` [Compound 477, 1-(2,4,5-trifluorophenyl)-3-(cis-3-(((S)-4,7,8-trimethyl-6-oxo-5,6,7,8-tetrahydropteridin-2-yl)amino)cyclobutyl)urea], under setting [1], the IC50 is under 300 nM.

For `Cc1nc(N[C@H]2C[C@@H](Nc3ncc(C#N)cc3F)C2)nc2c1NC(=O)[C@H](C(C)C)N2C` [Compound 715, 5-fluoro-6-((cis-3-(((S)-7-isopropyl-4,8-dimethyl-6-oxo-5,6,7,8-tetrahydropteridin-2-yl)amino)cyclobutyl)amino)nicotinonitrile], under setting [1], the IC50 is 1000 to 5000 nM.

In the case of `Cc1nc(NCc2cnn(Cc3ccc(F)cn3)c2)nc2c1NC(=O)[C@H](C(C)C)N2C` [Compound 454, (S)-2-(((1-((5-fluoropyridin-2-yl)methyl)-1H-pyrazol-4-yl)methyl)amino)-7-isopropyl-4,8-dimethyl-7,8-dihydropteridin-6(5H)-one], the IC50 under setting [1] was under 300 nM.

In the case of `Cc1nc(NC2CN(C(=O)CC3CC(F)(F)C3)C2)nc2c1NC(=O)[C@H](C(C)C)N2C` [Compound 606, (S)-2-((1-(2-(3,3-difluorocyclobutyl)acetyl)azetidin-3-yl)amino)-7-isopropyl-4,8-dimethyl-7,8-dihydropteridin-6(5H)-one], the IC50 under setting [1] is 300 to 1000 nM.

Regarding `Cc1nc(N(Cc2cnn(Cc3ccc(C(F)(F)F)nc3)c2)C(=O)CN)nc2c1NC(=O)[C@H](C)N2C` [Compound 406, (7S)-2-amino-N-((1-((6-(trifluoromethyl)pyridin-3-yl)methyl)-1H-pyrazol-4-yl)methyl)-N-(4,7,8-trimethyl-6-oxo-5,6,7,8-tetrahydropteridin-2-yl)acetamide], the IC50 (Colo 205 cells with stably transfected TCF/LEF luciferase reporter, read-out: TCF reporter Colo205) is at least 5000 nM.

Take `Cc1nc(NCc2cnn(CCC3CCCC3)c2)nc2c1NC(=O)[C@H](C)N2C` [Compound 133, (7S)-2-(((1-(2-cyclopentylethyl)-1H-pyrazol-4-yl)methyl)amino)-4,7,8-trimethyl-7,8-dihydropteridin-6(5H)-one]: under setting [1], the IC50 is under 300 nM.

Regarding `Cc1nc(N[C@H]2C[C@H](OCc3ccc(F)c(F)c3)C2)nc2c1NC(=O)[C@H](C)N2C` [Compound 264, (7S)-2-((trans-3-((3,4-difluorobenzyl)oxy)cyclobutyl)amino)-4,7,8-trimethyl-7,8-dihydropteridin-6(5H)-one], under setting [1], the IC50 is under 300 nM.

Turning to `C[C@H]1C(=O)Nc2cnc(N[C@H]3C[C@@H](COCc4ccc(F)cc4)C3)nc2N1C` [Compound 288, (7S)-2-((cis-3-(((4-fluorobenzyl)oxy)methyl)cyclobutyl)amino)-7,8-dimethyl-7,8-dihydropteridin-6(5H)-one], the IC50 under setting [1] lay within 300 to 1000 nM.

Consider `C[C@H]1C(=O)Nc2cnc(NCc3ccc(Oc4ccc(F)cc4)nc3)nc2N1C` [Compound 56, (7S)-2-(((6-(4-fluorophenoxy)pyridin-3-yl)methyl)amino)-7,8-dimethyl-7,8-dihydropteridin-6(5H)-one], for which the IC50 under setting [1] is under 300 nM.

Regarding `C[C@H]1C(=O)Nc2cnc(N[C@H]3C[C@H](OCc4ccc(F)c(F)c4)C3)nc2N1C` [Compound 265, (7S)-2-((trans-3-((3,4-difluorobenzyl)oxy)cyclobutyl)amino)-7,8-dimethyl-7,8-dihydropteridin-6(5H)-one], under setting [1], the IC50 lay in the range of 300 to 1000 nM.

Turning to `Cc1nc(N[C@H]2C[C@H](Oc3ccc(C(F)(F)F)nc3)C2)nc2c1N(C)C(=O)[C@H](C)N2C` [Compound 323, (7S)-4,5,7,8-tetramethyl-2-((trans-3-((6-(trifluoromethyl)pyridin-3-yl)oxy)cyclobutyl)amino)-7,8-dihydropteridin-6(5H)-one], the IC50 under setting [1] was under 300 nM.
